Among the data in patent publication US12357631B2 (priority 2018, dated 2025) are EC50 values, retold here.

Where only a bound is given, the exact number is not on record here.

The target of this experiment is PB2 (Influenza A virus, UniProt P03428). The experiment is described as follows: biochemical. The format is binding.
Sequence of PB2 (P03428 whole entry, looked up): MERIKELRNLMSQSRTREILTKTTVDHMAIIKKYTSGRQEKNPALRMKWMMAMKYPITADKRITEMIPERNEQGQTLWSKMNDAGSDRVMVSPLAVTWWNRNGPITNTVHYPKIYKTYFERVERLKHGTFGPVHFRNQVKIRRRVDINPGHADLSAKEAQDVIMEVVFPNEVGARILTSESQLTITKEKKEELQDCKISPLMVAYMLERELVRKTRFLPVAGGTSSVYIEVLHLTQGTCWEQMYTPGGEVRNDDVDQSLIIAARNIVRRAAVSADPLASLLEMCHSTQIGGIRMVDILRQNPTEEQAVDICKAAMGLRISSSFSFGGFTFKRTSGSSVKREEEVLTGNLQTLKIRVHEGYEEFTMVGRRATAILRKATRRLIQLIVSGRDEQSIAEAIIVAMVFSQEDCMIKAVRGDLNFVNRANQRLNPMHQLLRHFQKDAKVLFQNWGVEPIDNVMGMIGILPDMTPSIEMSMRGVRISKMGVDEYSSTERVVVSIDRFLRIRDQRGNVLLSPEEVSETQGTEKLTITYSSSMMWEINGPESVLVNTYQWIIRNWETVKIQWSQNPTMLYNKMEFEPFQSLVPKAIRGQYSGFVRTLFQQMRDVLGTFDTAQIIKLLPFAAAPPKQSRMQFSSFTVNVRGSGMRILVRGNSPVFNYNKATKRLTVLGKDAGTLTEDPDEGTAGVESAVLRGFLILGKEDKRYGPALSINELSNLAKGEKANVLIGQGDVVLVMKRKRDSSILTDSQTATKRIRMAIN
Consider `CCOCCOCCOCCNC(=O)N[C@@H]1CCC[C@H](Nc2nc(-c3c[nH]c4ncc(F)cc34)ncc2F)C1` [Compound A168], for which the 50% effective concentration (EC50) fell in the range of 5 to 25 µM.
The same measure for `CN(CCOCCOCCOCCO)C(=O)N[C@@H]1CCC[C@H](Nc2nc(-c3c[nH]c4ncc(F)cc34)ncc2F)C1` [Compound A169]: 50 to 100 µM.
Compound `NCCOCCOCCOCCNC(=O)N[C@@H]1CCC[C@H](Nc2nc(-c3c[nH]c4ncc(F)cc34)ncc2F)C1` [Compound A170] yielded an EC50 of more than 100 µM.
The same measure for `CN(CCOCCOCCOCCC(=O)O)C(=O)N[C@H]1CCC[C@@H](Nc2nc(-c3c[nH]c4ncc(F)cc34)ncc2F)C1` [Compound A171]: 25 to 50 µM; for `O=C(O)CCOCCOCCOCCNC(=O)N[C@H]1CCC[C@@H](Nc2nc(-c3c[nH]c4ncc(F)cc34)ncc2F)C1` [Compound A172]: 5 to 25 µM; for `CN(CCOCCOCCOCCN)C(=O)N[C@@H]1CCC[C@H](Nc2nc(-c3c[nH]c4ncc(F)cc34)ncc2F)C1` [Compound A173]: 50 to 100 µM.
With `CCCCCCCCCCCNC(=O)N[C@@H]1CCC[C@H](Nc2nc(-c3c[nH]c4ncc(F)cc34)ncc2F)C1` [Compound A174] the figure was 50 to 100 µM.
The same measure for `CCCCCCCCCCCN(C)C(=O)N[C@@H]1CCC[C@H](Nc2nc(-c3c[nH]c4ncc(F)cc34)ncc2F)C1` [Compound A175]: 50 to 100 µM; for `CCOCCOCCOCCN(Cc1ccccc1)C(=O)N[C@@H]1CCC[C@H](Nc2nc(-c3c[nH]c4ncc(F)cc34)ncc2F)C1` [Compound A176]: more than 100 µM.
`CCCCCOCCOCCN(C)C(=O)N[C@@H]1CCC[C@H](Nc2nc(-c3c[nH]c4ncc(F)cc34)ncc2F)C1` [Compound A177]: the 50% effective concentration (EC50) was more than 100 µM.
As for `CCOCCOc1cccc(CCNC(=O)N[C@@H]2CCC[C@H](Nc3nc(-c4c[nH]c5ncc(F)cc45)ncc3F)C2)c1` [Compound A178], the 50% effective concentration (EC50) is more than 100 µM.
The same measure for `CCCCCOCCOCCN(Cc1ccccc1)C(=O)N[C@@H]1CCC[C@H](Nc2nc(-c3c[nH]c4ncc(F)cc34)ncc2F)C1` [Compound A179]: more than 100 µM.
With `CCOCCOCCCCCNC(=O)N[C@@H]1CCC[C@H](Nc2nc(-c3c[nH]c4ncc(F)cc34)ncc2F)C1` [Compound A180] the figure was more than 100 µM; with `CCOCCOCCCCCN(Cc1ccccc1)C(=O)N[C@@H]1CCC[C@H](Nc2nc(-c3c[nH]c4ncc(F)cc34)ncc2F)C1` [Compound A182], 50 to 100 µM; with `CCCCCOCCOCCNC(=O)N[C@@H]1CCC[C@H](Nc2nc(-c3c[nH]c4ncc(F)cc34)ncc2F)C1` [Compound A183], 50 to 100 µM.
The same measure for `CCOCc1cccc(COCCN(C)C(=O)N[C@@H]2CCC[C@H](Nc3nc(-c4c[nH]c5ncc(F)cc45)ncc3F)C2)c1` [Compound A184]: more than 100 µM.
`CCCCCCCCCCCN(Cc1ccccc1)C(=O)N[C@@H]1CCC[C@H](Nc2nc(-c3c[nH]c4ncc(F)cc34)ncc2F)C1` [Compound A185] had an EC50 of more than 100 µM.
On to `CCOCCOc1cccc(CCN(C)C(=O)N[C@@H]2CCC[C@H](Nc3nc(-c4c[nH]c5ncc(F)cc45)ncc3F)C2)c1` [Compound A186], for which the half-maximal effective concentration (EC50) was more than 100 µM.
The same measure for `CCOCc1cccc(COCCNC(=O)N[C@@H]2CCC[C@H](Nc3nc(-c4c[nH]c5ncc(F)cc45)ncc3F)C2)c1` [Compound A187]: 50 to 100 µM; for `CN(CCOCCOCCOCCO)C(=O)N[C@H]1CCC[C@@H](Nc2nc(-c3c[nH]c4ncc(F)cc34)ncc2F)C1` [Compound A190]: more than 100 µM; for `CN(CCOCCOCCOCCO)C(=O)N[C@H]1CCC[C@@H](Nc2nc(-c3c[nH]c4ncc(F)cc34)ncc2F)C1` [Compound A191]: 25 to 50 µM.
With `CCOCCCCCOCCNC(=O)N[C@H]1CCC[C@@H](Nc2nc(-c3c[nH]c4ncc(F)cc34)ncc2F)C1` [Compound A192] the figure was more than 100 µM.
With `CCOCCCCCOCCN(C)C(=O)N[C@H]1CCC[C@@H](Nc2nc(-c3c[nH]c4ncc(F)cc34)ncc2F)C1` [Compound A193] the figure was more than 100 µM.
The compound `CCOCCOCCOCCNC(=O)N(CCCCc1ccccc1)[C@H]1CCC[C@@H](Nc2nc(-c3c[nH]c4ncc(F)cc34)ncc2F)C1` [Compound A194] came in with a 50% effective concentration (EC50) of more than 100 µM.
`CCOCCCCCOCCN(Cc1ccccc1)C(=O)N[C@H]1CCC[C@@H](Nc2nc(-c3c[nH]c4ncc(F)cc34)ncc2F)C1` [Compound A196]: the EC50 is more than 100 µM.
In turn, `CCOCCOCCOCCNC(=O)N[C@H]1CCC[C@@H](Nc2nc(-c3ccnc(Cl)c3)ncc2F)C1` [Compound A197] returned a concentration giving a half-maximal response (EC50) of more than 100 µM.
With `CCCOCCCCCCCN(C)C(=O)N[C@@H]1CCC[C@H](Nc2nc(-c3c[nH]c4ncc(F)cc34)ncc2F)C1` [Compound A199] the figure was more than 100 µM; with `CCCCOCCCCCCN(C)C(=O)N[C@@H]1CCC[C@H](Nc2nc(-c3c[nH]c4ncc(F)cc34)ncc2F)C1` [Compound A200], more than 100 µM; with `CCCCCOCCCCCN(C)C(=O)N[C@@H]1CCC[C@H](Nc2nc(-c3c[nH]c4ncc(F)cc34)ncc2F)C1` [Compound A201], more than 100 µM.
`CCOCCOCCCCCN(CC(=O)O)C(=O)N[C@@H]1CCC[C@H](Nc2nc(-c3c[nH]c4ncc(F)cc34)ncc2F)C1` [Compound A202] had an EC50 of 5 to 25 µM.
With `CCOCCOCCCCCN(CC)C(=O)N[C@H]1CCC[C@@H](Nc2nc(-c3c[nH]c4ncc(F)cc34)ncc2F)C1` [Compound A203] the figure was more than 100 µM; with `CCOCCOCc1cccc(CN(C)C(=O)N[C@@H]2CCC[C@H](Nc3nc(-c4c[nH]c5ncc(F)cc45)ncc3F)C2)c1` [Compound A204], more than 100 µM; with `CCCCCCOCCCCN(C)C(=O)N[C@H]1CCC[C@@H](Nc2nc(-c3c[nH]c4ncc(F)cc34)ncc2F)C1` [Compound A205], more than 100 µM.
Take `CCCCCCCOCCCN(C)C(=O)N[C@H]1CCC[C@@H](Nc2nc(-c3c[nH]c4ncc(F)cc34)ncc2F)C1` [Compound A206]: the concentration for a half-maximal effect (EC50) was more than 100 µM.
Regarding `CCOCCOCCCCCN(Cc1ccccn1)C(=O)N[C@@H]1CCC[C@H](Nc2nc(-c3c[nH]c4ncc(F)cc34)ncc2F)C1` [Compound A207], the EC50 fell in the range of 50 to 100 µM.
On to `CCOCCOCCCCCN(Cc1ccncc1)C(=O)N[C@H]1CCC[C@@H](Nc2nc(-c3c[nH]c4ncc(F)cc34)ncc2F)C1` [Compound A208], for which the EC50 is more than 100 µM.
The same measure for `CCOCCOCCCCCN(Cc1cncnc1)C(=O)N[C@H]1CCC[C@@H](Nc2nc(-c3c[nH]c4ncc(F)cc34)ncc2F)C1` [Compound A209]: more than 100 µM.
With `CCOCCOCCCCCN(CC(N)=O)C(=O)N[C@@H]1CCC[C@H](Nc2nc(-c3c[nH]c4ncc(F)cc34)ncc2F)C1` [Compound A210] the figure was 50 to 100 µM; with `CCOCCCCCCCCN(C)C(=O)N[C@H]1CCC[C@@H](Nc2nc(-c3c[nH]c4ncc(F)cc34)ncc2F)C1` [Compound A211], more than 100 µM.
With `CCOCCOCCc1cccc(N(C)C(=O)N[C@H]2CCC[C@@H](Nc3nc(-c4c[nH]c5ncc(F)cc45)ncc3F)C2)c1` [Compound A212] the figure was more than 100 µM; with `CCOCCCc1cccc(CCN(C)C(=O)N[C@H]2CCC[C@@H](Nc3nc(-c4c[nH]c5ncc(F)cc45)ncc3F)C2)n1` [Compound A213], more than 100 µM.
Compound `CCOCCOCCCCCN(C(=O)N[C@H]1CCC[C@@H](Nc2nc(-c3c[nH]c4ncc(F)cc34)ncc2F)C1)C(C)C` [Compound A214] returned a concentration for a half-maximal effect (EC50) of more than 100 µM.
With `CCOCCCc1cncc(CCN(C)C(=O)N[C@H]2CCC[C@@H](Nc3nc(-c4c[nH]c5ncc(F)cc45)ncc3F)C2)c1` [Compound A215] the figure was more than 100 µM.
With `CCOc1ccccc1OCCCCCN(C)C(=O)N[C@@H]1CCC[C@H](Nc2nc(-c3c[nH]c4ncc(F)cc34)ncc2F)C1` [Compound A216] the figure was more than 100 µM.
In turn, `CCOCCOCCCCCN(C)C(=O)NC1CCC(Nc2nc(-c3c[nH]c4ncc(F)cc34)ncc2F)C1` (centres unmarked) [Compound A217] registered an EC50 of more than 100 µM.
The same measure for `CCOCCOCCCCCN(C)C(=O)NCC(C)CNc1nc(-c2c[nH]c3ncc(F)cc23)ncc1F` (centres unmarked) [Compound A218]: more than 100 µM; for `CCOCCOCCCCCNC(=O)N(C)[C@H]1CCC[C@@H](Nc2nc(-c3c[nH]c4ncc(F)cc34)ncc2F)C1` [Compound A219]: 25 to 50 µM; for `CCOCCCc1cccc(CCN(C)C(=O)N[C@H]2CCC[C@@H](Nc3nc(-c4c[nH]c5ncc(F)cc45)ncc3F)C2)c1` [Compound A220]: 50 to 100 µM.
The same measure for `CN(CCCCCOCCOCc1ccccc1)C(=O)N[C@H]1CCC[C@@H](Nc2nc(-c3c[nH]c4ncc(F)cc34)ncc2F)C1` [Compound A221]: more than 100 µM; for `CN(CCCCCOCCOCc1ccccn1)C(=O)N[C@@H]1CCC[C@H](Nc2nc(-c3c[nH]c4ncc(F)cc34)ncc2F)C1` [Compound A222]: 50 to 100 µM; for `CCOc1ccccc1OCCCCCN(C)C(=O)N[C@H]1CCC[C@@H](Nc2nc(-c3c[nH]c4ncc(F)cc34)ncc2F)C1` [Compound A225]: more than 100 µM.
With `CCOCCOCCCCCN(CC)C(=O)N[C@H]1CCC[C@@H](Nc2nc(-c3c[nH]c4ncc(F)cc34)ncc2F)C1` [Compound A227] the figure was more than 100 µM; with `CCOCCOCCCCCN(CC)C(=O)N[C@H]1CCC[C@@H](Nc2nc(-c3c[nH]c4ncc(F)cc34)ncc2F)C1` [Compound A228], 50 to 100 µM.
The compound `CCCOCCCCCCCN(C)C(=O)N[C@@H]1CCC[C@H](Nc2nc(-c3c[nH]c4ncc(F)cc34)ncc2F)C1` [Compound A235] registered an EC50 of 50 to 100 µM.
The same measure for `CCCOCCCCCCCN(C)C(=O)N[C@@H]1CCC[C@H](Nc2nc(-c3c[nH]c4ncc(F)cc34)ncc2F)C1` [Compound A236]: 50 to 100 µM; for `CCOCCOCCCCCN(C)C(=O)N(C)[C@H]1CCC[C@@H](Nc2nc(-c3c[nH]c4ncc(F)cc34)ncc2F)C1` [Compound A241]: more than 100 µM; for `CCOCCOCCCCCN(C(=O)N[C@H]1CCC[C@@H](Nc2nc(-c3c[nH]c4ncc(F)cc34)ncc2F)C1)C1CC1` [Compound A242]: more than 100 µM.
`CCCOCCOCCCCN(C)C(=O)N[C@H]1CCC[C@@H](Nc2nc(-c3c[nH]c4ncc(F)cc34)ncc2F)C1` [Compound A243] gave an EC50 of more than 100 µM.
Consider `COCCOCCCCCCN(C)C(=O)N[C@H]1CCC[C@@H](Nc2nc(-c3c[nH]c4ncc(F)cc34)ncc2F)C1` [Compound A244], for which the EC50 was more than 100 µM.

As usually defined, the EC50 is the concentration needed to bring the measured effect to its halfway point.
